Experimental data: patent US11000033B2, “Ketone or oxime compound, and herbicide” (NISSAN CHEMICAL CORPORATION, priority 2014, dated 2021)

Tests used:
Format in all cases: in vivo
Amaranthus retroflexus = assay: Test Example 5: herbicidal effect by foliage application, plastic box (symbol N); details: 320 g/ha, 3 weeks after application
In short: (§1)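 Effect is rated 3 weeks after a foliar spray of water-diluted emulsion concentrate at a predetermined herbicide amount. Plants had grown 14 days in a 25° C. to 30° C. greenhouse from seed in sterilized diluvial soil.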

corn [1] = assay: Test Example 5: effect on crop by foliage application, plastic box (symbol c); details: 320 g/ha, 3 weeks after application
In short: (§2)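 Diluvial soil, sterilized and boxed (21 × 13 × 7 cm), received spot-sown seed covered by about 1.5 cm soil; plants were then greenhouse-grown at 25–30° C.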

[2] = test system: Echinochloa crus-galli var. crus-galli; assay: Test Example 3: herbicidal effect by foliage application, Wagner pot (symbol H); details: application herbicide amount 320 g/ha
In short: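 Rating at 3 weeks post-spray, by defined criteria. Treatment: emulsion diluted with water to a predetermined amount, applied evenly to foliage of 14-day-old plants raised in alluvial soil flooded 0.1–0.5 cm deep at 25–30 °C, rice co-sown.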

Chenopodium album [3] = assay: Test Example 4: herbicidal effect by soil treatment (symbol O); details: application herbicide amount 320 g/ha
In short: (§3)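 Seeds were sown in sterilized diluvial soil, covered with about 1.5 cm of soil, and the soil surface was sprayed with a water-diluted emulsion of the compound at a predetermined rate. Plants grew in a greenhouse at 25° C. to 30° C.; effects were scored visually 3 weeks after application.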

soybean = assay: Test Example 5: effect on crop by foliage application, plastic box (symbol d); details: 320 g/ha, 3 weeks after application
In short: as §2

Apera spica-venti = assay: Test Example 5: herbicidal effect by foliage application, plastic box (symbol L); details: 320 g/ha, 3 weeks after application
In short: as §1

Stellaria media = assay: Test Example 4: herbicidal effect by soil treatment (symbol P); details: application herbicide amount 320 g/ha
In short: as §3

Abutilon theophrasti = assay: Test Example 4: herbicidal effect by soil treatment (symbol M); details: application herbicide amount 320 g/ha
In short: as §3

corn [4] = assay: Test Example 4: effect on crop by soil treatment (symbol c); details: application herbicide amount 320 g/ha
In short: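 Grown at 25° C. to 30° C. in a greenhouse, the crops came from seed sown spot-wise in sterilized diluvial soil under roughly 1.5 cm of covering soil.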

Lolium multiflorum Lam. = assay: Test Example 5: herbicidal effect by foliage application, plastic box (symbol K); details: 320 g/ha, 3 weeks after application
In short: as §1

Veronica persica = assay: Test Example 5: herbicidal effect by foliage application, plastic box (symbol R); details: 320 g/ha, 3 weeks after application
In short: as §1

Galium spurium = assay: Test Example 4: herbicidal effect by soil treatment (symbol Q); details: application herbicide amount 320 g/ha
In short: as §3

[5] = test system: Echinochloa crus-galli var. crus-galli; assay: Test Example 5: herbicidal effect by foliage application, plastic box (symbol H); details: 320 g/ha, 3 weeks after application
In short: as §1

Alopecurus myosuroides [6] = assay: Test Example 5: herbicidal effect by foliage application, plastic box (symbol J); details: 320 g/ha, 3 weeks after application
In short: as §1

Alopecurus myosuroides [7] = assay: Test Example 4: herbicidal effect by soil treatment (symbol J); details: application herbicide amount 320 g/ha
In short: as §3

transplanted rice plant = assay: Test Example 1: effect on crop, application before weed generation in submerged conditions (symbol a); details: application herbicide amount 320 g/ha
In short: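 Alluvial soil pots flooded to 4 cm water, sown with Echinochloa oryzacola, Scirpus juncoides and Monochoria vaginalis, then transplanted with 2.5 leaf stage rice seedlings; pre-emergence application. Greenhouse 25° C. to 30° C.; scored 0–5 by herbicidal ratio 3 weeks after application.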

Chenopodium album [8] = assay: Test Example 5: herbicidal effect by foliage application, plastic box (symbol O); details: 320 g/ha, 3 weeks after application
In short: as §1

SMILES | N: Amaranthus retroflexus, herbicidal effect (criteria of Test Example 1) (Amaranthus retroflexus) | c: corn, effect on crop (criteria of Test Example 1) (corn [1]) | herbicidal effect on H (Echinochloa crus-galli var. crus-galli), grade 0-5 [2] | O: Chenopodium album, herbicidal effect grade (Chenopodium album [3]) | d: soybean, effect on crop (criteria of Test Example 1) (soybean) | L: Apera spica-venti, herbicidal effect (criteria of Test Example 1) (Apera spica-venti) | P: Stellaria media, herbicidal effect grade (Stellaria media) | M: Abutilon theophrasti, herbicidal effect grade (Abutilon theophrasti) | c: corn, effect on crop grade (corn [4]) | K: Lolium multiflorum Lam., herbicidal effect (criteria of Test Example 1) (Lolium multiflorum Lam.) | R: Veronica persica, herbicidal effect (criteria of Test Example 1) (Veronica persica) | Q: Galium spurium, herbicidal effect grade (Galium spurium) | H: Echinochloa crus-galli var. crus-galli, herbicidal effect (criteria of Test Example 1) [5] | J: Alopecurus myosuroides, herbicidal effect (criteria of Test Example 1) (Alopecurus myosuroides [6]) | J: Alopecurus myosuroides, herbicidal effect grade (Alopecurus myosuroides [7]) | Effect grade on crop, a: transplanted rice plant (transplanted rice plant) | O: Chenopodium album, herbicidal effect (criteria of Test Example 1) (Chenopodium album [8]) | also measured
CON=C(C)CC1CC(OC(=O)N(C)C)=C(c2c(C)cc(-c3ccc(Cl)cc3)cc2C)C1=O (mixture of isomers) [6-063] | 0 (Herbicidal ratio of 5% or lower (almost no effect)) | 5 (Herbicidal ratio of 90% or more (almost completely withered)) | 4 (Herbicidal ratio of 70% or higher and lower than 90%) | 0 (Herbicidal ratio of 5% or lower (almost no effect)) | 0 (Herbicidal ratio of 5% or lower (almost no effect)) | 5 (Herbicidal ratio of 90% or more (almost completely withered)) | 0 (Herbicidal ratio of 5% or lower (almost no effect)) | 0 (Herbicidal ratio of 5% or lower (almost no effect)) | 0 (Herbicidal ratio of 5% or lower (almost no effect)) | 5 (Herbicidal ratio of 90% or more (almost completely withered)) | 0 (Herbicidal ratio of 5% or lower (almost no effect)) | 0 (Herbicidal ratio of 5% or lower (almost no effect)) | 5 (Herbicidal ratio of 90% or more (almost completely withered)) | 3 (Herbicidal ratio of 40% or higher and lower than 70%) | 0 (Herbicidal ratio of 5% or lower (almost no effect)) | 4 (Herbicidal ratio of 70% or higher and lower than 90%) | – | –
CCc1cc(-c2ccc(Cl)cc2)cc(C)c1C1=C(OC(=O)N2CCOCC2)CC(CC(C)=NOC)C1=O (mixture of isomers) [6-064] | – | 5 (Herbicidal ratio of 90% or more (almost completely withered)) | 5 (Herbicidal ratio of 90% or more (almost completely withered)) | 0 (Herbicidal ratio of 5% or lower (almost no effect)) | 0 (Herbicidal ratio of 5% or lower (almost no effect)) | 5 (Herbicidal ratio of 90% or more (almost completely withered)) | 0 (Herbicidal ratio of 5% or lower (almost no effect)) | 0 (Herbicidal ratio of 5% or lower (almost no effect)) | 0 (Herbicidal ratio of 5% or lower (almost no effect)) | 5 (Herbicidal ratio of 90% or more (almost completely withered)) | 4 (Herbicidal ratio of 70% or higher and lower than 90%) | 0 (Herbicidal ratio of 5% or lower (almost no effect)) | 5 (Herbicidal ratio of 90% or more (almost completely withered)) | 3 (Herbicidal ratio of 40% or higher and lower than 70%) | 4 (Herbicidal ratio of 70% or higher and lower than 90%) | 5 (Herbicidal ratio of 90% or more (almost completely withered)) | – | –
CCc1cc(-c2ccc(Cl)cc2)cc(C)c1C1=C(O)CC(CC(C)=NOC)C1=O (stereo not shown) [6-066] | 3 (Herbicidal ratio of 40% or higher and lower than 70%) | 5 (Herbicidal ratio of 90% or more (almost completely withered)) | 5 (Herbicidal ratio of 90% or more (almost completely withered)) | 0 (Herbicidal ratio of 5% or lower (almost no effect)) | 3 (Herbicidal ratio of 40% or higher and lower than 70%) | 5 (Herbicidal ratio of 90% or more (almost completely withered)) | 0 (Herbicidal ratio of 5% or lower (almost no effect)) | 0 (Herbicidal ratio of 5% or lower (almost no effect)) | 4 (Herbicidal ratio of 70% or higher and lower than 90%) | 5 (Herbicidal ratio of 90% or more (almost completely withered)) | – | 0 (Herbicidal ratio of 5% or lower (almost no effect)) | 5 (Herbicidal ratio of 90% or more (almost completely withered)) | 5 (Herbicidal ratio of 90% or more (almost completely withered)) | 5 (Herbicidal ratio of 90% or more (almost completely withered)) | 3 (Herbicidal ratio of 40% or higher and lower than 70%) | 1 (Herbicidal ratio of 5% or higher and lower than 20%) | –
CON=C(C)CC1CC(OC(=O)SC(C)(C)C)=C(c2c(C)cc(-c3ccc(Cl)cc3)cc2C)C1=O (stereo not shown) [6-082] | 1 (Herbicidal ratio of 5% or higher and lower than 20%) | 5 (Herbicidal ratio of 90% or more (almost completely withered)) | 5 (Herbicidal ratio of 90% or more (almost completely withered)) | 0 (Herbicidal ratio of 5% or lower (almost no effect)) | 0 (Herbicidal ratio of 5% or lower (almost no effect)) | 5 (Herbicidal ratio of 90% or more (almost completely withered)) | 0 (Herbicidal ratio of 5% or lower (almost no effect)) | 2 (Herbicidal ratio of 20% or higher and lower than 40%) | 0 (Herbicidal ratio of 5% or lower (almost no effect)) | 5 (Herbicidal ratio of 90% or more (almost completely withered)) | 4 (Herbicidal ratio of 70% or higher and lower than 90%) | 0 (Herbicidal ratio of 5% or lower (almost no effect)) | 5 (Herbicidal ratio of 90% or more (almost completely withered)) | 5 (Herbicidal ratio of 90% or more (almost completely withered)) | 5 (Herbicidal ratio of 90% or more (almost completely withered)) | 5 (Herbicidal ratio of 90% or more (almost completely withered)) | – | –
CON=C(C)CC1CC(OC(=O)N2CCOCC2)=C(c2c(C)cc(-c3ccc(Cl)cc3F)cc2C)C1=O (stereo not shown) [6-089] | – | – | 5 (Herbicidal ratio of 90% or more (almost completely withered)) | – | – | 5 (Herbicidal ratio of 90% or more (almost completely withered)) | – | – | – | 4 (Herbicidal ratio of 70% or higher and lower than 90%) | 4 (Herbicidal ratio of 70% or higher and lower than 90%) | – | – | 5 (Herbicidal ratio of 90% or more (almost completely withered)) | – | 5 (Herbicidal ratio of 90% or more (almost completely withered)) | 4 (Herbicidal ratio of 70% or higher and lower than 90%) | Herbicidal effect grade, O: Chenopodium album (Chenopodium album [3]): 0 (Herbicidal ratio of 5% or lower (almost no effect)); Herbicidal effect grade, P: Stellaria media (Stellaria media): 0 (Herbicidal ratio of 5% or lower (almost no effect)); Herbicidal effect grade, M: Abutilon theophrasti (Abutilon theophrasti): 0 (Herbicidal ratio of 5% or lower (almost no effect)); Effect on crop grade, c: corn (corn [4]): 0 (Herbicidal ratio of 5% or lower (almost no effect)); Herbicidal effect grade, Q: Galium spurium (Galium spurium): 0 (Herbicidal ratio of 5% or lower (almost no effect)); Herbicidal effect grade, J: Alopecurus myosuroides (Alopecurus myosuroides [7]): 2 (Herbicidal ratio of 20% or higher and lower than 40%)
